According to patent US20040024024A1, “Aromatic sulfone hydroxamates and their use as protease inhibitors” (priority 2001, published 2004):
Each block holds one compound with its values, some of them ahead of it.

Columns and labels:
[1] = target: T1, Human recombinant MMP-13 (Homo sapiens, UniProt P45452); assay: In vitro MMP inhibition, IC50 determination (fluorogenic substrate I); type: biochemical
T1 construct: made in house; host or cells: baculovirus / insect cells
In short: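 Fluorescence at 415 nm (excitation 328 nm) reports Gly-Leu cleavage of 4 μM quenched methoxycoumarin peptide substrate I. Human recombinant MMP-13, activated by trypsin or APMA, was incubated at room temperature with varied inhibitor concentrations in pH 7.5 Tris/NaCl/CaCl2 buffer; IC50 derived from reduced fluorescence.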

[2] = target: T2, Human recombinant MMP-2 (Homo sapiens, UniProt P08253); assay: as above; type: biochemical
T2 construct: made in house; host or cells: MMP-2-transfected p2AHT2 cells
T2 sequence (P08253 110-660): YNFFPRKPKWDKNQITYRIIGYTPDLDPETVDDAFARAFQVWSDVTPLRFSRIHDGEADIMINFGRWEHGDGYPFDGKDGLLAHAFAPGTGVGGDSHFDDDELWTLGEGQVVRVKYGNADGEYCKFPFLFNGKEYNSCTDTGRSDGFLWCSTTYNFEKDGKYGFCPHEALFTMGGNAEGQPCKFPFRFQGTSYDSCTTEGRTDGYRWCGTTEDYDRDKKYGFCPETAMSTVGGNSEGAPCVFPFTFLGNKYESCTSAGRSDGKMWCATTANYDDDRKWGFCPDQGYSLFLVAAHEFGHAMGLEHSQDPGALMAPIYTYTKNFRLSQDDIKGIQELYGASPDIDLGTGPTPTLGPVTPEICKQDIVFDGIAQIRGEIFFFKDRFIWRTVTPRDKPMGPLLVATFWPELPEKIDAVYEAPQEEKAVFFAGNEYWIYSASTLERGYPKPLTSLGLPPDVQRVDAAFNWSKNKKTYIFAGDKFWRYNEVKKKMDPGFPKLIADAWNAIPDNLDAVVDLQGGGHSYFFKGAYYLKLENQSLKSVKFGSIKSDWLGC
In short: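 IC50 was derived from the concentration-dependent fall in fluorescence (ex 328, em 415 nm) on Gly-Leu cleavage of 4 μM MCA/Dpa-quenched substrate I. Assays ran at room temperature in pH 7.5 Tris/NaCl/CaCl2/Brij buffer with MMP-2 activated by trypsin or APMA; inhibitors were diluted from 1% DMSO stocks.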

[3] = value outside parentheses (Ki in parenthesis)

IC50 [1, 3]: 97.3 nM | IC50 [2, 3]: 615 nM
Compound: COc1ccc(C(=O)[C@H](O)CCOc2ccc(S(=O)(=O)C3(C(=O)NO)CCOCC3)cc2)cc1 [Example 318]

IC50 ([1]; value outside parenthesis): 153 nM | IC50 ([2]; value outside parenthesis): 1690 nM
Compound: COCCN1CCC(C(=O)NO)(S(=O)(=O)c2ccc(OCCCc3nc(-c4ccc(CCC(C)C)cc4C)no3)cc2)CC1 [Example 100]

IC50 [1, 3]: 0.6 nM | IC50 [2, 3]: 21 nM
Compound: O=C(NCCCOc1ccc(S(=O)(=O)C2(C(=O)NO)CCOCC2)cc1)c1ccc(-c2ccccc2)cc1 [Example 365]

IC50 ([1]; value outside parenthesis): 11.9 nM | IC50 ([2]; value outside parenthesis): 69.7 nM
Compound: COCCN1CCC(C(=O)NO)(S(=O)(=O)c2ccc(OCCCn3ccc(-c4ccc(OC)cc4)n3)cc2)CC1 [Example 223]

IC50 ([1]; value outside parenthesis): 0.2 nM | IC50 ([2]; value outside parenthesis): 40 nM
Compound: COc1ccc2cc(C(=O)CCCCOc3ccc(S(=O)(=O)C4(C(=O)NO)CCN(C5CC5)CC4)cc3)ccc2c1 [Example 265]

IC50 [1, 3]: < 0.1 nM | IC50 [2, 3]: 18.1 nM
Compound: O=C(NO)C1(S(=O)(=O)c2ccc(OCCCc3nc4cc5ccccc5cc4o3)cc2)CCOCC1 [Example 313]

IC50 [1, 3]: 41 nM | IC50 [2, 3]: 313 nM
Compound: O=C(NO)C1(S(=O)(=O)c2ccc(OCCCN3CCCc4ccccc43)cc2)CCOCC1 [Example 412]

IC50 ([1]; value outside parenthesis): 1.1 nM | IC50 ([2]; value outside parenthesis): 247 nM
Compound: CC(C)Cc1ccc(-c2nnc(CCCOc3ccc(S(=O)(=O)C4(C(=O)NO)CCOCC4)cc3)o2)cc1 [Example 179]

IC50 [1, 3]: 7 nM | IC50 [2, 3]: 430 nM
Compound: COc1ccccc1C(=O)NCCCOc1ccc(S(=O)(=O)C2(C(=O)NO)CCOCC2)cc1 [Example 363]

IC50 ([1]; value outside parentheses): 14.8 nM | IC50 ([2]; value outside parentheses): 160 nM
Compound: COc1ccc(NC(=O)NCCCOc2ccc(S(=O)(=O)C3(C(=O)NO)CCOCC3)cc2)c(C)c1 [Example 498]

IC50 [1, 3]: 14.3 nM | IC50 [2, 3]: 271 nM
Compound: COc1ccc(/C(C)=C/CCCOc2ccc(S(=O)(=O)C3(C(=O)NO)CCOCC3)cc2)c(OC)c1 [Example 345]

IC50 ([1]; value outside parenthesis): 32.4 nM | IC50 ([2]; value outside parenthesis): 1450 nM
Compound: COCCN1CCC(C(=O)NO)(S(=O)(=O)c2ccc(OCCCn3nc(C(F)(F)F)cc3C(F)(F)F)cc2)CC1 [Example 253]

IC50 ([1]; value outside parenthesis): 1.4 nM | IC50 ([2]; value outside parenthesis): 4.9 nM
Compound: COCCN1CCC(C(=O)NO)(S(=O)(=O)c2ccc(OCCCn3nnc(-c4cccs4)n3)cc2)CC1 [Example 143]

IC50 ([1]; value outside parenthesis): 13.3 nM | IC50 ([2]; value outside parenthesis): 138 nM
Compound: COCCN1CCC(C(=O)NO)(S(=O)(=O)c2ccc(OCCCn3cc(-c4ccc(F)cc4)cn3)cc2)CC1 [Example 222]

IC50 [1, 3]: 8.6 nM | IC50 [2, 3]: 17 nM
Compound: COc1ccc2c(c1)CCCN2CCCCCOc1ccc(S(=O)(=O)C2(C(=O)NO)CCOCC2)cc1 [Example 416]

Further lines, the compound ahead of its results:

Compound: O=C(NCCOc1ccc(S(=O)(=O)C2(C(=O)NO)CCOCC2)cc1)c1ccc(Br)s1 [Example 620]
IC50 ([1]; value outside parentheses): 4.1 nM | IC50 ([2]; value outside parentheses): 16.2 nM

Compound: COc1cc2c(cc1OC)CN(CCCCOc1ccc(S(=O)(=O)C3(C(=O)NO)CCOCC3)cc1)C(C)C2 (stereo not shown) [Example 337]
IC50 [1, 3]: 12.2 nM | IC50 [2, 3]: 41.9 nM

Compound: O=C(NO)C1(S(=O)(=O)c2ccc(OCCn3nnc4ccccc4c3=O)cc2)CCOCC1 [Example 590]
IC50 ([1]; value outside parentheses): 48 nM | IC50 ([2]; value outside parentheses): 858 nM

Compound: O=C(C1CCCCC1)N1CC[C@@H](Oc2ccc(S(=O)(=O)C3(C(=O)NO)CCOCC3)cc2)C1 [Example 425]
IC50 [1, 3]: 3310 nM | IC50 [2, 3]: > 10000 nM

Compound: O=C(NCCCOc1ccc(S(=O)(=O)C2(C(=O)NO)CCOCC2)cc1)c1cc2cc(O)ccc2cc1O [Example 378]
IC50 [1, 3]: 2.7 nM | IC50 [2, 3]: 655 nM

Compound: N#Cc1ccc(C(=O)NCCCOc2ccc(S(=O)(=O)C3(C(=O)NO)CCOCC3)cc2)cc1 [Example 387]
IC50 [1, 3]: 2.2 nM | IC50 [2, 3]: 83 nM

Compound: Cc1cc(C)c(C(=O)NCCCOc2ccc(S(=O)(=O)C3(C(=O)NO)CCOCC3)cc2)c(C)c1 [Example 370]
IC50 [1, 3]: 37 nM | IC50 [2, 3]: 900 nM

Compound: O=C(NO)C1(S(=O)(=O)c2ccc(OCCCCCN3CCCc4ccccc43)cc2)CCOCC1 [Example 414]
IC50 [1, 3]: 14 nM | IC50 [2, 3]: 37 nM

Compound: O=C(NO)C1(S(=O)(=O)c2ccc(OCCc3cccc(-c4cncnc4)c3)cc2)CCOCC1 [Example 521]
IC50 ([1]; value outside parentheses): 5.8 nM | IC50 ([2]; value outside parentheses): 62 nM

Compound: O=C(NCCCOc1ccc(S(=O)(=O)C2(C(=O)NO)CCOCC2)cc1)C1CCCC1 [Example 400]
IC50 [1, 3]: 9 nM | IC50 [2, 3]: 326 nM

Compound: NS(=O)(=O)CCCOc1ccc(S(=O)(=O)C2(C(=O)NO)CCOCC2)cc1 [Example 296]
IC50 [1, 3]: 565 nM | IC50 [2, 3]: 1340 nM
